Source: patent publication US20250052769A1, “MIMOTOPES OF ARA H 2 AND USES OF THE SAME TO DIAGNOSE PEANUT ALLERGIES” (The Regents of the University of Colorado, A Body Corporate, priority 2023, published 2025)
Entries after “also recorded” stand apart in the source; their conditions may differ. Blank lines part the entries; values can stand above or below the substance they belong to. Non-standard residues stand in square brackets, D forms with d. No end group written: not given here. Hyp = O=C(O)[C@@H]1C[C@@H](O)CN1

Columns and labels:
Ara h 2-specific IgE [1] = assay: Biotin/streptavidin ELISA of serum IgE binding to peptides; design: species or system human; settings: for IgE binding by ELISA, Biotide peptides: serum pool at 10 IU/ml Ara h 2-sIgE, 20-30% pure Biotide peptides at 1 nM, Bt-anti-HuIgE 1:3,000 (FIG. 5A, 6A); for IgE binding by ELISA, purified peptides: serum pool at 10 IU/ml, 95-97% pure peptides at 5 nM, Bt-anti-HuIgE 1:500 (FIG. 5B, 6B)
From the text: (§1) To produce the serum pool, 10 individual sera were pooled with the concentration of Ara h 2-sIgE normalized so that no one serum was predominant (Table 2). Seven sera were studied in detail, 3 of these were included in the serum pool and 4 independent of the serum pool (Table 2). The Colorado Multiple Institutional Review Board (COMIRB) approved this study. All adult patients and the parents or guardians of minors gave written informed consent. Minors who were >6 years of age, signed an assent.
(§2) Peptides for ELISAs were synthesized with an N-terminal linker arm (Ttds; JPT Peptides, Berlin) followed by biotin at the N terminus. Prior to generating microarrays with high fidelity sequences, we performed screening assays using the Biotide approach (JPT Peptides, Berlin) in which multiple related peptides are synthesized in a cost-effective manner at approximately 20% purity. For validation, selected peptides were also synthesized by standard methods and purified (95-97% pure) by HPLC (JPT Laboratories, Berlin). For all peptides of epitope 3 and the related mimotope studied here, trans-4-hydroxyproline (h) was substituted for second proline in the DPY_P motif as this substitution may enhance binding of IgE. Peptides for microarray assays were synthesized with the Ttds linker arm on the N terminus and printed onto microscope slides treated with a proprietary 3-dimensional surface by JPT Peptides (Berlin).
Streptavidin (InVitrogen) (5 μg/ml) was bound to micro titer plates by overnight incubation in PBS, the plates were washed once with PBST (0.05% Tween 20) and 50 μL of peptides were added at a final concentration of 1-5 nM in PBST for 1 hour at room temperature. Unoccupied streptavidin sites were then saturated with 400 μM biotin in PBS and the samples were probed with diluted sera from allergic subjects diluted in PBST with 0.1% albumin to contain 10 IU/ml of Ara h 2-sIgE. After overnight incubation at 4° C., slides were washed, incubated with HRP-labeled murine monoclonal anti-human IgE (clone HP6029; Southern Biotech 1:500-1:3,000), washed again and developed with TMB (ThermoFisher Scientific). Background binding of serum without peptide (OD=approximately 0.100) was subtracted. We also examined the background of peptide without serum and this was similar to, or lower than, the background of serum without peptide.
(§3) GraphPad Prism (versions 8.4-9.5 for the Macintosh (GraphPad; La Jolla, CA)) was used to generate graphs and for statistical analysis. The following analyses were performed: 1) for dose response curves, multiple unpaired t test with Welch correction for unequal variances; 2) to combine data from multiple assays, the data were normalized within each assay based on IgE binding to the native sequence (epitope 3) or the original sequence (mimotope A147) and expressed binding as percent of binding and 3) to compare differences in IgE binding for a specific alanine substitution, one way ANOVA followed by Dunnet's multiple comparison test.

Ara h 2-specific IgE [2] = assay: Peptide microarray of serum IgE binding (dose response and alanine scans); design: species or system human
From the text: as §1, §2
Each microscope slide contained 21 microarrays and within each microarray, peptides were printed in triplicate. 10-15 spots were not printed with any peptide as control spots. Sera were diluted to contain the same concentrations of Ara h 2-sIgE (usually 10 IU/ml) or at various concentrations for dose response assays and assayed in duplicate arrays on 3-4 separate days as previously described except for use of biotinylated anti-IgE (clone HP6029 from Southern Biotech at 1:1,000). For each microarray assay, the density units of three observations within each microarray were averaged and then the data from duplicate microarrays were averaged. To combine data from multiple independent assays, the signal within each assay was normalized to that of a wild-type peptide and the signal was expressed as a percent of that with the original peptide. Background binding of serum without peptide (300-500 AU) was subtracted. We also examined the background of peptide without serum. Only for the mimotope, this background was higher than the background of serum without peptide and these values (5,000-10,000 AU), which were quite high, were subtracted from the signal of serum with peptide (which bound IgE very strongly (20,000-30,000 AU), instead of subtracting the background of serum without peptide.
Linear sequences of epitope 3 and the mimotope as well as derivative peptides in which each amino acid was sequentially changed to alanine were studied.
as §3

Substance: DEDSYERDPYShSQDP (DEDSYERDPYS[Hyp]SQDP) [Epitope 3-Core]
IgE binding by ELISA, Biotide peptides (Ara h 2-specific IgE [1]): bind IgE almost as well as the 20mer sequence | IgE binding by ELISA, purified peptides (Ara h 2-specific IgE [1]): bound similar amounts of IgE; also recorded: No significant differences were seen; also recorded: strong binding

Substance: LLDPYAPRAWTK [A147]
IgE binding by ELISA, Biotide peptides (Ara h 2-specific IgE [1]): did not bind IgE well

Substance: LLDPYAhRAWTK (LLDPYA[Hyp]RAWTK) [mimotope with P->h]
IgE binding by ELISA, Biotide peptides (Ara h 2-specific IgE [1]): bound more IgE at all doses than did the original mimotope | IgE binding by ELISA, Biotide peptides (Ara h 2-specific IgE [1]; listed as SEQ ID NO:2): binding was dramatically enhanced | IgE binding by ELISA, purified peptides (Ara h 2-specific IgE [1]): No significant differences were seen | IgE binding by ELISA, purified peptides (Ara h 2-specific IgE [1]; listed as SEQ ID NO:2): bound similar amounts of IgE as did Epitope 3-Core | IgE binding by ELISA, purified peptides (Ara h 2-specific IgE [1]; listed as substituted mimotope): bound amounts of IgE similar to that of the Epitope 3-Core peptide | Microarray signal of serum with peptide (Ara h 2-specific IgE [2]; before background subtraction): 20,000-30,000 AU | IgE binding in microarray format at Ara h 2 sIgE of 0.3 kU/L (Ara h 2-specific IgE [2]; serum pool at 0.3 kU/L Ara h 2 sIgE, p<0.05 (FIG. 7)): bound significantly more IgE than did Epitope 3-Core | IgE binding in microarray format, dose response of serum (Ara h 2-specific IgE [2]; serum pool at various doses, P substituted with h in all peptides (FIG. 7)): tended to bind more IgE at lower doses of serum

The next lines start with results.

IgE binding by ELISA, purified peptides (Ara h 2-specific IgE [1]): bound similar amounts of IgE
Substance: ERDPYShSQDPYShSPYDRR (ERDPYS[Hyp]SQDPYS[Hyp]SPYDRR) [20mer version of epitope 3]

IgE binding after alanine substitution, density units normalized to WT sequence (Ara h 2-specific IgE [2]; alanine scan of Epitope 3-Core, serum pool at 10 IU/ml Ara h 2-sIgE, percent of WT signal (FIG. 1B)): 9±6%
Substance: Y10: Epitope 3-Core (DEDSYERDPYShSQDP) with amino acid Y10 changed to alanine (DEDSYERDPAS[Hyp]SQDP)
Relevance of the residue for IgE binding, alanine scan of Epitope 3-Core with individual sera (Ara h 2-specific IgE [2]; 7 individual sera (FIG. 2B)): relevant for most sera
